Entries after “also recorded” stand apart in the source; their conditions may differ. Structures can show the parent of a compound that is named as a salt.
What was measured:
[1] = system: HBsAg (Hepatitis B Surface Antigen); experiment: Adjuvant activity towards HBsAg, serum titers by ELISA (Example 4); type: in vivo, BALB/c mice; settings: for Serum Titers IgG / Serum Titers IgG1 / Serum Titers IgG2a / Serum Titers IgG2b: s.c. 2 μg HBsAg + 20 μg adjuvant day 0 and 21, pooled sera (5 mice/group) 21 days post-secondary
Description: Vaccines were prepared by mixing the adjuvant-containing TEoA (triethanolamine) formulations with recombinant HBsAg. Titers to HBsAg were determined by ELISA from pooled sera (5 mice/group) collected 21 days post-secondary vaccination (Table 1). The nonimmune controls were not vaccinated.

[2] = Rabbit pyrogen test; type: in vivo, rabbits; settings: for Pyrogenicity (total rise of 3 rabbits): total rise of 3 rabbits following i.v. 10 μg/Kg dose, solubilized in 10% EtOH/WFI, diluted with 5% dextrose in water
Description: In an effort to obtain an immunostimulant that has low pyrogenicity, synthetic molecules have been prepared which share structural similarities with the MPLO immunostimulant. These novel molecules which are collectively called aminoalkyl glucosaminide phosphates (AGPs), consist of an acylated […] moiety linked to an acylated aminoalkyl group (Johnson et al. (1999) Bioorg. Med. Chem. Lett. 9: 2273-2278; PCTAWO98/50399 and references therein). […] The substitution of different chemical moieties within the aminoalkyl structures was designed into the AGPs in anticipation of optimizing stability and solubility properties. Thus the AGPs can be broadly separated into several families based on the structure of their aminoalkyl groups. After initial biological evaluation, it became apparent that the aminoalkyl motifs could dramatically affect the pyrogenic properties of the AGPs (see U.S. patent application Ser. No. 09/074,720 filed May 7, 1998, and U.S. Pat. Nos. 6,113,918 and 6,303,347). As part of the initial screening process of the synthetic adjuvant compounds, rabbit pyrogenicity data was determined. […] Here we report on studies of the adjuvant properties of a class of AGPs which induce minimal activity in both the rabbit pyrogen test and the ex vivo cytokine assay.

[3] = system: TNF-α; experiment: Ex vivo cytokine induction, TNF-α by sandwich ELISA (Example 8); type: cell-based; settings: human blood cells, 4 hr at 37° C.
Description: (§1) The effects of Compound II on the elaboration of TNF-α and IL-1β was measured under ex vivo conditions on human peripheral blood mononuclear cells. MPL® immunostimulant and Compound II were formulated in aqueous solutions of 0.2% TEoA/WFI.
(§2) Human whole blood was used to evaluate the ability of glycolipids (AGPS) to induce proinflammatory cytokines. Human whole blood is collected into heparinized tubes and 0.45 ml of whole blood is admixed with 0.05 ml phosphate buffered saline (PBS, pH 7.4) containing the glycolipid (i.e., the test compounds). The tubes are incubated for 4 hr at 37° C. on a shaker apparatus. The samples are then diluted with 1.5 ml sterile PBS and centrifuged. The supernatants are removed and analyzed for […] TNF-α and IL-1β by sandwich ELISA using R&D Systems' Quantikine immunoassay kits for human TNF-α and IL-1β.

[4] = system: hemagglutinin protein in FluZone influenza vaccine; experiment: Adjuvant activity towards hemagglutinin protein in FluZone influenza vaccine, FluZone ELISA (Example 5); settings: for Serum Titers IgG / Serum Titers IgG1 / Serum Titers IgG2a / Serum Titers IgG2b: s.c. 0.2 μg hemagglutinin in FluZone + 20 μg adjuvant day 0 and 14, pooled sera of 5 mice 14 days post secondary
Description: Groups of BALB/c mice (Jackson Laboratories Bar Harbor, Me.) 6-8 weeks old were injected subcutaneous with 0.2 μg hemagglutinin protein in FluZone influenza vaccine (Connaught Laboratories, Swiftwater, Pa.) ±20 μg adjuvant (MPL® immunostimulant orCompound II) on day 0 and day 14. […] The nonimmune controls were not vaccinated. The initial dilutions used on sera from test groups was 1:1600.

[5] = system: IL-1β; experiment: Ex vivo cytokine induction, IL-1β by sandwich ELISA (Example 8); type: cell-based, human; settings: for relative induction of IL-1β: level induced with MPL immunostimulant assigned a value of 1
Description: as §1, §2

[6] = system: HBsAg; experiment: Adjuvant activity towards HBsAg, IgG1 and IgG2a isotype titers by ELISA (Example 6); type: in vivo, BALB/c mice; settings: for Serum Titers IgG1 / Serum Titers IgG2a: s.c. 2.0 μg HBsAg + 25 μg adjuvant day 0 and 21, pooled sera 21 days post secondary; for titers to HBsAg, in words: versus control group receiving antigen in PBS / positive control MPL
Description: Groups of BALB/c mice injected subcutaneous with 2.0 μg HBsAg(Rhein Americana, & Rhein Biotech) ±25 μg adjuvant (MPLO immunostinulant orCompound II) on day 0 and day 21. IgG1 and IgG2a isotype titers to HBsAg were determined by ELISA from pooled sera collected 21 days post secondary (Table 3). The nonimmune controls were not vaccinated.

[7] = cited from earlier work
[8] = system: Inducible Nitric Oxide Synthase (iNOS); experiment: iNOS induction in IFN-γ primed J774 murine macrophages, Greiss reagent nitrite release (Example 9); type: cell-based; settings: IFN-γ primed J774 cells
Description: This example illustrates the effects of various glycolipids on iNOS induction in J774 murine macrophages. The murine macrophage cell line J774 can be primed by IFN-γ in vitro and is very responsive to subsequent LPS stimulation of iNOS upregulation as measured by a standard Greiss reagent ELISA assay procedure. The assay utilizes J774 cells seeded at 1×10^6/mL with 30 mL/flask and with IFN-γ added at 100 units/mL for 16-24 hrs. Cells are then harvested and washed and resuspended at 2×10^5/well in a 96-well plate and allowed to adhere. Glycolipid compounds are serially diluted into the wells for a test group and the resulting cultures are incubated for another 36-40 hrs before culture supernatants are collected from Greiss reagent analysis of nitrite release (Green et al. (1982) Anal. Biochem. 126: 131-138). Nitrite content closely parallels iNOS function.
Potency was determined as the concentration (ng/mL) of glycolipid in culture capable of inducing one-half maximal induction of nitrite (ED50). The lower the ED50 number, the greater the potency for iNOS induction. The ED50 was cacluated according to methods set out in Johnson et al., (1999) J Med Chem. 42: 4640-4649.

[9] = versus control sera receiving antigen alone

Row | Compound | Serum Titers IgG [1] | Serum Titers IgG1 [1] | Serum Titers IgG2a [1] | Serum Titers IgG2b [1] | Pyrogenicity (total rise of 3 rabbits) [2] | Serum Titers IgG [4] | Serum Titers IgG1 [4] | Serum Titers IgG2a [4] | Serum Titers IgG2b [4] | relative induction of IL-1β [5] | Serum Titers IgG1 [6] | Serum Titers IgG2a [6] | titers to HBsAg, in words [6] | also measured
1 | CCCCCCCCCCCCCC(=O)O[C@H](CCCCCCCCCCC)CC(=O)N[C@H]1[C@H](OC[C@@H]2CCCN2C(=O)C[C@@H](CCCCCCCCCCC)OC(=O)CCCCCCCCCCCCC)O[C@H](CO)[C@@H](OP(=O)(O)O)[C@@H]1OC(=O)C[C@@H](CCCCCCCCCCC)OC(=O)CCCCCCCCCCCCC [Compound II, N-[(R)-3-tetradecanoyloxytetradecanoyl]-(S)-2-pyrrolidinylmethyl 2-deoxy-4-O-phosphono-2-[(R)-3-tetradecanoyloxytetradecanoylamino]-3-O-[(R)-3-tetradecanoyloxytetradecanoyl]-β-D-glucopyranoside triethylammonium salt] | 409,600 | 204,800 | 409,600 | 51,200 | 0.3 °C | 51,200 | 102,400 | 25,600 | 6400 | ≤ 0.05 | 32,000 | 2,048,000 | increased titers compared to the control group | anti-HBsAg responses (serum titers), in words [1, 9]: significantly higher than control sera receiving antigen alone; fever response in the rabbit pyrogen test, in words ([2]; i.v. 10 μg/kg): apparent lack of fever; induction of TNF-α, in words ([3]; Compound II at 1, 5 and 10 μg/ml): did not produce levels of TNF-α that could be detected; also recorded: without inducing detectable levels; titers to FluZone, in words [4, 9]: significantly higher than control sera receiving antigen alone; induction of IL-1β, in words ([5]; ex vivo, human blood cells, 4 hr at 37° C., Compound II at 1, 5 and 10 μg/ml): did not produce detectable levels of IL-1β; also recorded: without inducing detectable levels
2 | Monophosphoryl lipid A [MPL® immunostimulant, reference compound] | 409,600 | 204,800 | 204,800 | 51,200 | 2-3 °C | 102,400 | 102,400 | 25,600 | 12,800 | 1 | 128,000 | 1,024,000 |  | dose that can be safely administered to humans ([7]; humans): at least 20 μg/kg; dose levels at which increases in temperature, flu-like symptoms, increasing heart rate and modest decreases in blood pressure can occur ([7]; some patients): ≥ 0.01 mg/kg; iNOS induction / nitrite elaboration, in words [8]: high levels of nitrite elaboration; concentration effective at inducing TNF-α [3]: 100 to 10,000 ng/mL
3 | N-[(R)-3-tetradecanoyloxytetradecanoyl]-(S)-2-pyrrolidinylmethyl 2-deoxy-4-O-phosphono-2-[(R)-3-tetradecanoyloxytetradecanoylamino]-3-O-[(R)-3-tetradecanoyloxytetradecanoyl]-β-D-glucopyranoside triethylammonium salt [Compound II] |  |  |  |  |  |  |  |  |  |  |  |  | titers equivalent to the positive controls | 
